The nature of series [1]: Diffusion of Atrazine and Mesotrione from units submerged in free water. It is filed as physicochemical. As to conditions: over 5 days. Here is the method:
A unit (each from the table above) was placed within a 500 cc vial. 250 cc of DI water were added. The vial was cover with punched Parafilm and stored at room temperature. After 24 hours, the free water, which didn't absorbed by the polymer, were drained and stored in a cold room. DI water at the same volume was refilled into the vial. Repeated this stage after 72 and 120 hours.

Another series has as its system Solanum Nigrum. In words: Weed development and mortality (Example 11). The class given is in vivo. As to conditions: for Weed control, unit versus spray practice: damage of weed buds from 13 days to end of trial. From the text:
Weeds: 30 seeds of Solanum Nigrum per pot.
Analysis of weeds parameters: Fresh biomass, size and total area covered by weeds per pot.

Series [2] can be described thus: Azoxystrobin content in pepper leaves (Example 12). It is filed as in vivo. Here is the method:
Planting/harvesting dates: (47 days). Following harvest, unit samples from all treatments were excavated gently and were quantified for roots penetration and total root length. A core from the middle of each sample was cut and analyzed for root content. Root count in both vertical and horizontal axes and total volume were used estimating the root total length within a single unit. Total leaves biomass of each plant was analyzed to Azoxystrobin content in qualified laboratory (Bactochem, Israel).
Azoxystrobin application through the soil was studied as part of its registration process. The concentration in pepper leaves was measured over time from application. Similar Azoxystrobin concentrations in leaves were found in both commercial and current trial (tenth of ppm). […] This significant difference may inform the potential of the unit for protecting the plant for longer periods compared to current application practice.

The conditions of series [3]: soil application studied as part of registration process, 28 DAP; cited from earlier work.
The conditions of series [4]: Example 12; cited from earlier work.
A further series deals with maize. In words: Crop selectivity (Example 11). It is filed as in vivo. From the text:
Soil: 10 liter pots (surface area of 0.045 m^2) filled with Rehovot Sand (High sand fraction, low OM, low EC, low CEC, and High pH).
Crops: 6 maize plants per pot following herbicide application (high demand to fertilizers with selectivity).
Analysis of crop development parameters: Height and fresh biomass.

The values that follow come from patent US20170196175A1, “COMPOSITIONS FOR THE DELIVERY OF AGROCHEMICALS TO THE ROOTS OF A PLANT” (ADAMA MAKHTESHIM LTD., priority 2014, published 2017).

SMILES strings stand for the structures.

Consider `CCNc1nc(Cl)nc(NC(C)C)n1` [Atrazine], for which the “Dose released from the new units to the surrounding free water” value in series [1] is recorded as “up to 10%”. For the same compound, in the series with Solanum Nigrum, the “Weed control, unit versus spray practice” value was “no difference between unit and spray practices”.
Consider `CO/C=C(/C(=O)OC)c1ccccc1Oc1cc(Oc2ccccc2C#N)ncn1` [Azoxystrobin], for which the “Azoxystrobin concentration in unit leaves” value in series [2] (47 DAP) is on record as “effective concentrations were found”. Besides, in series [2] (DAP 47), the “Difference in Azoxystrobin concentration in leaves between fully fertilized and no fertilizer” value was determined as 5 fold. Also, the “Azoxystrobin concentration in leaves” value in series [2] (pepper, unit and commercial trial) is reported as “tenth of ppm”. Further, the “Azoxystrobin residue in commercial leaves” value in series [3] was “no residue were found”. Further, the DT50 in series [4] is 100 to 150 days.
As to `CS(=O)(=O)c1ccc(C(=O)C2C(=O)CCCC2=O)c([N+](=O)[O-])c1` [Mesotrione], the “Dose released from the new units to the surrounding free water” value in series [1] was “up to 25%”. Further, the “Crop selectivity (crop height, color, final fresh biomass)” value in the series on maize (double and fourfold doses) is “yellowish and slight shorter (fourfold only), yet no difference was found in fresh biomass”; in the series on maize (standard dose), “selective”. The “Weed control, unit versus spray practice” value in the series with Solanum Nigrum is recorded as “significant advantages of unit over spray”. In addition, the “Weed control, half application rate in unit versus full spray rate” value in the series with Solanum Nigrum (in vivo) is “more effective than full spray rate”.
